Laboratory results as given in patent US10344060B2 (priority 2013, dated 2019).
Values joined by “and” are separate entries in the source; they are usually repeats but may differ in a detail not shown here. Identical values can stand only once.

Target: hNav1.7 (Homo sapiens, UniProt Q15858)
Experiment: cell-based
Details: ratio of IonWorks Quattro IC50 values

Sequence of hNav1.7 (Q15858 whole entry): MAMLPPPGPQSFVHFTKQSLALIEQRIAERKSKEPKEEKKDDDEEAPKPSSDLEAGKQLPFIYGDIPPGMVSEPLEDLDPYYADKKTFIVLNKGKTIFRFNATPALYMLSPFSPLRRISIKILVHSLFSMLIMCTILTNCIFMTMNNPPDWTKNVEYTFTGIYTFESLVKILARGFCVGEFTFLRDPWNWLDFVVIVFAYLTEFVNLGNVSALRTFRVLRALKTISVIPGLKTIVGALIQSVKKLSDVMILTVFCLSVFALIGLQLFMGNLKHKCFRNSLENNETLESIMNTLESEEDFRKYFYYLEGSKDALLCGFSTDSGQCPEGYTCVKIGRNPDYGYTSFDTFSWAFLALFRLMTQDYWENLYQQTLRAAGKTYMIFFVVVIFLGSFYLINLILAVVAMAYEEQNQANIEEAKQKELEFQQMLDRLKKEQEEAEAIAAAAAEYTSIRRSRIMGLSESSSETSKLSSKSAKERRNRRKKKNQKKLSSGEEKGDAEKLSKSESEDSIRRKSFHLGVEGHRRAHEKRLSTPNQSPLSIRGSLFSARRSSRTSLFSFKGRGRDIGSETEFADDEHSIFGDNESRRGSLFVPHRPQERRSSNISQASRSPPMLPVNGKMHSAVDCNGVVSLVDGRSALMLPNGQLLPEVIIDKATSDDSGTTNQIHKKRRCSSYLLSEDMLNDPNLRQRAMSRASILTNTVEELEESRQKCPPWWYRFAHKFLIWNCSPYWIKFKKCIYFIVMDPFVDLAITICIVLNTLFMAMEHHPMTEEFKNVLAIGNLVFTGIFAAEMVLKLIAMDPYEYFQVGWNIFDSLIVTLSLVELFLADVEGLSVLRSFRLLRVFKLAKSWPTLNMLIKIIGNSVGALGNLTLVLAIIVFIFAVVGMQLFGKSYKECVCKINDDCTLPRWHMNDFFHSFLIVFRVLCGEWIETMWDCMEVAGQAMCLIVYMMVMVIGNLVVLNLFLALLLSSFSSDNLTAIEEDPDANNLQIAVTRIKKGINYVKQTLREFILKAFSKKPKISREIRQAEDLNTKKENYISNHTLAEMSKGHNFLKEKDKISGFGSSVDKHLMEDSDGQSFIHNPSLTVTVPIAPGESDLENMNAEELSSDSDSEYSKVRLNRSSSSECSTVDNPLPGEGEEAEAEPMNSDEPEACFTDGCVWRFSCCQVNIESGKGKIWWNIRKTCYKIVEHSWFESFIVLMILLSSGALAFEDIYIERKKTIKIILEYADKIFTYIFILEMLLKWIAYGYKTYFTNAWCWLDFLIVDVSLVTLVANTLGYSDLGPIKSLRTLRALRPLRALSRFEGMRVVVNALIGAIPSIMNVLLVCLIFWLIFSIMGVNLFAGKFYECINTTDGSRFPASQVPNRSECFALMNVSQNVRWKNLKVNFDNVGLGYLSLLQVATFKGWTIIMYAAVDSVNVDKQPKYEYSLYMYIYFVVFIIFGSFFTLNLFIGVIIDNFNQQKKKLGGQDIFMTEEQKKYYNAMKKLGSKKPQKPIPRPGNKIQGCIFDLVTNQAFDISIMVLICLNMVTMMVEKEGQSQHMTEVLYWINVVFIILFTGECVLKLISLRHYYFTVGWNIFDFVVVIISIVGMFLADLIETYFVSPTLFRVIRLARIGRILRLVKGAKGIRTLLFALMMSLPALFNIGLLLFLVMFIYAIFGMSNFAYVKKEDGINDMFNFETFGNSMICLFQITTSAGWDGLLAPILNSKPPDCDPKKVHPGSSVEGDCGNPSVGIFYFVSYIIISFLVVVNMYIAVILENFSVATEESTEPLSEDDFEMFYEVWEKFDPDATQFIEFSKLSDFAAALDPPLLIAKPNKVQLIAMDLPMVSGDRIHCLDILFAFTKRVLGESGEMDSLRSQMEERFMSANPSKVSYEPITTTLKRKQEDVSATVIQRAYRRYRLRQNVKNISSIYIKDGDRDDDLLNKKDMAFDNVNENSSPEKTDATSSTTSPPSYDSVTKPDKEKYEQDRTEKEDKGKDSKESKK

CC[C@H](C)[C@H](NC(=O)[C@@H](NC(=O)[C@H](CCCCN)NC(=O)[C@H](CCCNC(=N)N)NC(=O)[C@@H]1CSSC[C@@H]2NC(=O)[C@H](C)NC(=O)[C@H](CCCNC(=N)N)NC(=O)[C@H](CCCCN)NC(=O)[C@H](CO)NC(=O)[C@H](CC(=O)O)NC(=O)[C@@H]3CSSC[C@H](NC(=O)[C@H](Cc4ccc(C(=O)O)cc4)NC(=O)[C@H](CC(C)C)NC(=O)CNC(=O)[C@H](CCC(=O)O)NC(=O)[C@H](CSSC[C@H](NC(=O)[C@@H](N)Cc4ccc(O)cc4)C(=O)N[C@@H](CCC(N)=O)C(=O)N[C@@H](CCCCN)C(=O)N[C@@H](Cc4c[nH]c5ccccc45)C(=O)N[C@@H](CCSC)C(=O)N[C@@H](Cc4c[nH]c5ccccc45)C(=O)N[C@@H]([C@@H](C)O)C(=O)N3)NC2=O)C(=O)N[C@@H](CCCCN)C(=O)N[C@@H](CC(C)C)C(=O)N[C@@H](Cc2c[nH]c3ccccc23)C(=O)N1)[C@@H](C)CC)C(N)=O [compound 114]
Nav1.4/Nav1.7 (Nav1.4 over Nav1.7): 24

CCC[C@@H]1NC(=O)[C@H](CC(C)C)NC(=O)CNC(=O)[C@H](CCC(=O)O)NC(=O)[C@@H]2CSSC[C@H](NC(=O)[C@@H](N)Cc3ccc(O)cc3)C(=O)N[C@@H](CCC(N)=O)C(=O)N[C@@H](CCCCN)C(=O)N[C@@H](Cc3c[nH]c4ccccc34)C(=O)N[C@@H](CCSC)C(=O)N[C@@H](Cc3c[nH]c4ccccc34)C(=O)N[C@@H]([C@@H](C)O)C(=O)N[C@H]3CSSC[C@H](NC1=O)C(=O)N[C@@H](CCCCN)C(=O)N[C@@H](CC(C)C)C(=O)N[C@@H](Cc1c[nH]c4ccccc14)C(=O)N[C@H](C(=O)N[C@@H](CCCNC(=N)N)C(=O)N[C@@H](CCCCN)C(=O)N[C@H](C(=O)N[C@H](C(N)=O)[C@@H](C)CC)[C@@H](C)CC)CSSC[C@H](NC(=O)[C@H](C)NC(=O)[C@H](CCCNC(=N)N)NC(=O)[C@H](CCCCN)NC(=O)[C@H](CO)NC(=O)[C@H](CC(=O)O)NC3=O)C(=O)N2 [compound 123]
Nav1.4/Nav1.7 (Nav1.4 over Nav1.7): 19

CC[C@H](C)[C@H](NC(=O)[C@H](CCCCN)NC(=O)[C@H](CCCNC(=N)N)NC(=O)[C@@H]1CSSC[C@@H]2NC(=O)[C@H](C)NC(=O)[C@H](CCCNC(=N)N)NC(=O)[C@H](CCCCN)NC(=O)[C@H](CO)NC(=O)[C@H](CC(=O)O)NC(=O)[C@@H]3CSSC[C@H](NC(=O)[C@H](CCC(=O)O)NC(=O)[C@H](CC(C)C)NC(=O)CNC(=O)[C@H](CCC(=O)O)NC(=O)[C@H](CSSC[C@H](NC(=O)[C@@H](N)Cc4ccc(O)cc4)C(=O)N[C@@H](CCC(N)=O)C(=O)N[C@@H](CCCCN)C(=O)N[C@@H](Cc4c[nH]c5ccccc45)C(=O)N[C@@H](CCSC)C(=O)N[C@@H](Cc4c[nH]c5ccccc45)C(=O)N[C@@H]([C@@H](C)O)C(=O)N3)NC2=O)C(=O)N[C@@H](CCCCN)C(=O)N[C@@H](CC(C)C)C(=O)N[C@@H](Cc2c[nH]c3ccccc23)C(=O)N1)C(=O)N[C@H](C(=O)N[C@@H](Cc1c[nH]c2ccccc12)C(N)=O)[C@@H](C)CC [compound 113]
Nav1.4/Nav1.7 (Nav1.4 over Nav1.7): 30

CC[C@H](C)[C@H](NC(=O)[C@@H](NC(=O)[C@H](CCCCN)NC(=O)[C@H](CCCNC(=N)N)NC(=O)[C@@H]1CSSC[C@@H]2NC(=O)[C@H](C)NC(=O)[C@H](CCCNC(=N)N)NC(=O)[C@H](CCCCN)NC(=O)[C@H](CO)NC(=O)[C@H](CC(=O)O)NC(=O)[C@@H]3CSSC[C@H](NC(=O)[C@H](C(C)C)NC(=O)[C@H](CC(C)C)NC(=O)CNC(=O)[C@H](CCC(=O)O)NC(=O)[C@H](CSSC[C@H](NC(=O)[C@@H](N)Cc4ccc(O)cc4)C(=O)N[C@@H](CCC(N)=O)C(=O)N[C@@H](CCCCN)C(=O)N[C@@H](Cc4c[nH]c5ccccc45)C(=O)N[C@@H](CCSC)C(=O)N[C@@H](Cc4c[nH]c5ccccc45)C(=O)N[C@@H]([C@@H](C)O)C(=O)N3)NC2=O)C(=O)N[C@@H](CCCCN)C(=O)N[C@@H](CC(C)C)C(=O)N[C@@H](Cc2c[nH]c3ccccc23)C(=O)N1)[C@@H](C)CC)C(N)=O [compound 120]
Nav1.4/Nav1.7 (Nav1.4 over Nav1.7): 31

CC[C@H](C)[C@H](NC(=O)[C@H](CCC(=O)O)NC(=O)[C@H](CCCCN)NC(=O)[C@H](CCCNC(=N)N)NC(=O)[C@@H]1CSSC[C@@H]2NC(=O)[C@H](C)NC(=O)[C@H](CCCNC(=N)N)NC(=O)[C@H](CCCCN)NC(=O)[C@H](CO)NC(=O)[C@H](CC(=O)O)NC(=O)[C@@H]3CSSC[C@H](NC(=O)[C@H](CCC(=O)O)NC(=O)[C@H](CC(C)C)NC(=O)CNC(=O)[C@H](CCC(=O)O)NC(=O)[C@H](CSSC[C@H](NC(=O)[C@@H](N)Cc4ccc(O)cc4)C(=O)N[C@@H](CCC(N)=O)C(=O)N[C@@H](CCCCN)C(=O)N[C@@H](Cc4c[nH]c5ccccc45)C(=O)N[C@@H](CCSC)C(=O)N[C@@H](Cc4c[nH]c5ccccc45)C(=O)N[C@@H]([C@@H](C)O)C(=O)N3)NC2=O)C(=O)N[C@@H](CCCCN)C(=O)N[C@@H](CC(C)C)C(=O)N[C@@H](Cc2c[nH]c3ccccc23)C(=O)N1)C(N)=O [compound 126]
Nav1.4/Nav1.7 (Nav1.4 over Nav1.7): 5 and 3

CC[C@H](C)[C@H](NC(=O)[C@@H](NC(=O)[C@H](CCCCN)NC(=O)[C@H](CCCNC(=N)N)NC(=O)[C@@H]1CSSC[C@@H]2NC(=O)[C@H](C)NC(=O)[C@H](CCCNC(=N)N)NC(=O)[C@H](CCCCN)NC(=O)[C@H](CO)NC(=O)[C@H](CC(=O)O)NC(=O)[C@@H]3CSSC[C@H](NC(=O)[C@H](CCCNC(N)=O)NC(=O)[C@H](CC(C)C)NC(=O)CNC(=O)[C@H](CCC(=O)O)NC(=O)[C@H](CSSC[C@H](NC(=O)[C@@H](N)Cc4ccc(O)cc4)C(=O)N[C@@H](CCC(N)=O)C(=O)N[C@@H](CCCCN)C(=O)N[C@@H](Cc4c[nH]c5ccccc45)C(=O)N[C@@H](CCSC)C(=O)N[C@@H](Cc4c[nH]c5ccccc45)C(=O)N[C@@H]([C@@H](C)O)C(=O)N3)NC2=O)C(=O)N[C@@H](CCCCN)C(=O)N[C@@H](CC(C)C)C(=O)N[C@@H](Cc2c[nH]c3ccccc23)C(=O)N1)[C@@H](C)CC)C(N)=O [compound 122]
Nav1.4/Nav1.7 (Nav1.4 over Nav1.7): 15

CC[C@H](C)[C@H](NC(=O)[C@H](Cc1ccc(O)cc1)NC(=O)[C@H](CCCCN)NC(=O)[C@H](CCCNC(=N)N)NC(=O)[C@@H]1CSSC[C@@H]2NC(=O)[C@H](C)NC(=O)[C@H](CCCNC(=N)N)NC(=O)[C@H](CCCCN)NC(=O)[C@H](CO)NC(=O)[C@H](CC(=O)O)NC(=O)[C@@H]3CSSC[C@H](NC(=O)[C@H](CCCNC(=N)N)NC(=O)[C@H](CC(C)C)NC(=O)CNC(=O)[C@H](CCC(=O)O)NC(=O)[C@H](CSSC[C@H](NC(=O)[C@@H](N)CCC(=O)O)C(=O)N[C@@H](CCC(N)=O)C(=O)N[C@@H](CCCCN)C(=O)N[C@@H](Cc4c[nH]c5ccccc45)C(=O)N[C@@H](CCSC)C(=O)N[C@@H](Cc4c[nH]c5ccccc45)C(=O)N[C@@H]([C@@H](C)O)C(=O)N3)NC2=O)C(=O)N[C@@H](CCCCN)C(=O)N[C@@H](CC(C)C)C(=O)N[C@@H](Cc2c[nH]c3ccccc23)C(=O)N1)C(N)=O [compound 278]
Nav1.4/Nav1.7 (Table 8): 16
